Measurements taken from patent publication EP0293500A1, “3-heteroalkyl-2,4.quinzaoline-diones” (AMERICAN CYANAMID COMPANY, priority 1987, dated 1988).
Structures can show the parent of a compound that is named as a salt.

Columns and labels:
[1] = system: spontaneously hypertensive rats of the Okamoto strain; assay: Hypotensive activity in spontaneously hypertensive rats (method of Chan and Poorvin); format: in vivo; details: male SHR, average MABP 160±1.5 mm of mercury; gavage, 100 mg/kg or less, second identical dose 24 hours later; MABP at 28 hours after the initial dose; number of rats in brackets
Procedure: The novel compounds of the present invention are also active hypotensive agents and were tested for hypotensive activity by the method of P. S. Chan and b. Poorvin, Clinical and Experimental Hypertension, 1 (6), 817-830 (1979). Male, 16 week old, spontaneously hypertensive rats of the Okamoto strain, from Taconic Farms, Germantown, New York having an average mean arterial blood pressure of 160±1.5 mm of mercury were used in the test. […] A second identical dose of the test compound, without sodium chloride loading is given 24 hours later. At 28 hours after the initial dose, the mean arterial blood pressure (MABP) is measured by the method of Chan and Poorvin vide supra. The procedure is repeated in a second and third rat when necessary. The results of this test on representative compounds of the present invention appear in Table II below.

[2] = molecular target: T1, thromboxane synthetase (Rattus norvegicus, UniProt P49430); assay: Inhibition of thromboxane (TX) formation (TXB2 radioimmunoassay) in washed rat platelets; format: cell-based, Okamoto-Aoki spontaneously hypertensive rats (SHR); details: percent inhibition of TXB2 formation; drug at 10^-4M; SHR platelet suspension, 10 minutes at 37 C
T1 construct: The platelets were isolated by centrifuging the PRP for 10 minutes at 1060xg; from tissue; host or cells: washed blood platelets from Okamoto-Aoki spontaneously hypertensive rats (SHR)
T1 sequence (P49430 1-533): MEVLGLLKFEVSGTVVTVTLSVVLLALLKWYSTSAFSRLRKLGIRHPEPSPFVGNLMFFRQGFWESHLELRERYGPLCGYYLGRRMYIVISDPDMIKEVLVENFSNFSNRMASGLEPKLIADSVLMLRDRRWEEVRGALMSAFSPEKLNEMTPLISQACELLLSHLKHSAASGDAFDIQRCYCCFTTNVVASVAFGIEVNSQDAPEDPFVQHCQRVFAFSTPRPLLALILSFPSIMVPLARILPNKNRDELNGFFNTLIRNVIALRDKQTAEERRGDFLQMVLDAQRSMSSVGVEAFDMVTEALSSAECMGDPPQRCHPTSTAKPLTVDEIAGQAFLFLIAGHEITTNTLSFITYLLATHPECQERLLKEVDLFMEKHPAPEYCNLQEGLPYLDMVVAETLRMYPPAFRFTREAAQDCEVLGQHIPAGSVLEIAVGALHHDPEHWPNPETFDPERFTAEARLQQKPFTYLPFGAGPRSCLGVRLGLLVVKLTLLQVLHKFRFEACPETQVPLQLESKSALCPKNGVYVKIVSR
From the text: The platelet rich plasma (PRP) was separated. […] The inhibition of thromboxane (TX) formation was studied by determing the concentration of thromboxane […] (TXB2), the stable hydrolysis product of TXA2.

Row | Compound | inhibition at 100 µM [2] [%] | MABP/mm Hg (no. of rats) [1]
1 | O=c1c2ccccc2nnn1CCCCCn1ccnc1 [Example 101, 3-[5-(1H-Imida-zol-1-yl)pentyl]-1,2,3-benzotria-zin-4(3H)-one, monohydrochloride] | 67 | 113(2) mm Hg
2 | O=c1c2ccccc2nnn1CCCCCCn1ccnc1 [Example 102, 3-[6-(1H-Imida-zol-1-yl)hexyl]-1,2,3-benzotria-zin-4(3H)-one, monohydrochloride] | 96 | 87(2) mm Hg
3 | O=c1c2ccccc2ncn1CCCn1ccnc1 [Example 122, 3-[3-(1 H-Imidazol-1-yl)propyl]-4(3H)-quinazolinone] | 51 | 139(2) mm Hg
4 | O=c1c2ccccc2ncn1CCCCn1ccnc1 [Example 123, 3-[4-(1H-Imidazol-1-yl)butyl]-4(3H)-quinazolinone, dihydro-chloride] | 83 | 117(3) mm Hg
5 | O=c1c2cc(Cl)ccc2ncn1CCCCn1ccnc1 [Example 124, 6-Chloro-3-[4-(1H-imidazol-1-yl)-butyl]-4(3H)-quinazolinone, dihydro-chloride] | 99 | 106(2) mm Hg
6 | O=c1c2cc(Br)ccc2ncn1CCCCn1ccnc1 [Example 125, 6-Bromo-3-[4-(1H-imidazol-1-yl)-butyl]-4(3H)-quinazolinone, dihydro-chloride] | 99 | 121(2) mm Hg

The next lines start with results.

Row | inhibition at 100 µM [2] [%] | Compound | MABP/mm Hg (no. of rats) [1]
7 | 99 | O=c1c2cc(Br)ccc2ncn1CCCn1ccnc1 [Example 126, 6-Bromo-3-[3-(1H-imidazol-1-yl)-propyl]-4(3H)-quinazolinone] | 122(2) mm Hg
8 | 87 | Cc1ccc2ncn(CCC(C)n3ccnc3)c(=O)c2c1 (centres unmarked) [Example 127, 3-[3-(1H-Imidazol-1-yl)butyl]-6-methyl-4(3H)-quinazolinone] | 133(4) mm Hg
9 | 100 | CC(Cn1ccnc1)Cn1cnc2ccccc2c1=O.Cl.Cl (centres unmarked) [Example 134, 3-[3-(1H-Imidazol-1-yl)-2-methylpropyl]-4(3H)-quinazolinone, dihydrochloride] | 121(2) mm Hg
10 | 75 | O=c1c2cc(Cl)ccc2ncn1CCCn1ccnc1 [Example 138, 6-Chloro-[3-(1H-imidazol-1-yl)propyl]-4(3H)-quinazolinone] | 100(2) mm Hg
11 | 89 | Cc1cn(CCCn2cnc3ccc(Cl)cc3c2=O)cn1 [Example 139, 6-Chloro-3-[3-(4-methyl-1H-imidazol-1-yl)propyl]-4(3H)-quinazolinone] | 123(3) mm Hg
12 | 100 | CC(CCn1cnc2ccc(Cl)cc2c1=O)n1ccnc1 (centres unmarked) [Example 140, 6-Chloro-3-[3-(1H-Imidazol-1-yl)butyl]-4(3H)-quinazolinone] | 114(2) mm Hg
13 | 70 | O=c1c2cc(Cl)ccc2ncn1CCCCCCCCn1ccnc1 [Example 143, 6-Chloro-3-[8-(1H-imidazol-1-yl)octyl]-4(3H)-quinazolinone] | 118(2) mm Hg
